According to patent US8263606B2 (Xenon Pharmaceuticals Inc., priority 2008, dated 2012):

Key:
sodium channel = assay: Guanidine influx assay (14C-guanidine radiotracer flux, in vitro); format: cell-based, human or rat; conditions: guanidine influx assay using a known cell line that expresses a sodium channel
Summary of the method: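 Sodium channel block is measured as reduced 14C-guanidine uptake in cells stably expressing human or rat channels, stimulated with aconitine. Potency is given as IC50 from a four-parameter curve.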

CYP3A4 = CYP3A4 (Homo sapiens, UniProt P08684); assay: Cytochrome P450 (CYP450) Inhibition Assay, CYP3A4 (Vivid fluorescence, BOMCC substrate); conditions: human, P450 Baculosomes (recombinant CYP3A4), probe BOMCC (Vivid substrate)
Sequence of CYP3A4 (P08684 whole entry): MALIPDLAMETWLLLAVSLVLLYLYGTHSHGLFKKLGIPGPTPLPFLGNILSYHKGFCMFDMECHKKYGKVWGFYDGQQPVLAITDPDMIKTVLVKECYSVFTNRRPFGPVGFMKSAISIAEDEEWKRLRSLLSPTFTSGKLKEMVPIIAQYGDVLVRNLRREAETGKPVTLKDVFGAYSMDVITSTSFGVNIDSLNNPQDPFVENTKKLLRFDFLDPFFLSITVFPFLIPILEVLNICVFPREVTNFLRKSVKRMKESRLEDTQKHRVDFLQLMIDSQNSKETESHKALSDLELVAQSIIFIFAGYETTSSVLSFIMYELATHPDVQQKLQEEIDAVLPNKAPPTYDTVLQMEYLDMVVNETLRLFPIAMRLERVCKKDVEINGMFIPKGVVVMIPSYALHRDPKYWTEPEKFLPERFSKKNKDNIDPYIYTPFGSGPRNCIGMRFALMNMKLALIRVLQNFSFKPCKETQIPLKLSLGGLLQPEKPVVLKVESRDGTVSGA

Row | Compound | melting point | IC50 (sodium channel) | inhibition at 10 µM (CYP3A4) | IC50 (sodium channel; activity level class)
1 | CN1CCOC(CN2C(=O)C3(COc4cc5c(cc43)OCCO5)c3ccccc32)C1 (stereo not drawn) [Example 11.104, 1-[(4-methylmorpholin-2-yl)methyl]-2,3-dihydrospiro[furo[2,3-g][1,4]benzodioxine-8,3′-indol]-2′(1′H)-one] | 102 to 112 °C | 100 to 1000 nM | > 50% | –
2 | O=C1N(Cc2ccccc2C(F)(F)F)c2ccccc2[C@]12COc1cc3c(cc12)OCCO3 [Example 4.116, (8S)-1′-[2-(trifluoromethyl)benzyl]-2,3-dihydrospiro[furo[2,3-g][1,4]benzodioxine-8,3′-indol]-2′(1′H)-one] | 137 to 138 °C | – | < 50% | 1 to 100 nM
3 | O=C1N(C(c2ccccc2)c2ccccc2)c2ccccc2C12COc1cc3c(cc12)OCCO3 (stereo not drawn) [Example 2.11, 1′-(diphenylmethyl)-2,3-dihydrospiro[furo[2,3-g][1,4]benzodioxine-8,3′-indol]-2′(1′H)-one] | 183 to 185 °C | – | < 50% | 1000 to 10000 nM
4 | O=C1N(Cc2ncccc2F)c2ccccc2C12COc1cc3c(cc12)OCCO3 (stereo not drawn) [Example 4.101, 1-[(3-fluoropyridin-2-yl)methyl]-2,3-dihydrospiro[furo[2,3-g][1,4]benzodioxine-8,3′-indol]-2′(1′H)-one] | 247 to 249 °C | – | < 50% | 1 to 100 nM
5 | COc1ccc(CN2C(=O)C3(COc4cc5c(cc43)OCCO5)c3ccccc32)cc1OC (stereo not drawn) [Example 4.46, 1′-(3,4-dimethoxybenzyl)-2,3-dihydrospiro[furo[2,3-g][1,4]benzodioxine-8,3′-indol]-2′(1′H)-one] | 209 to 211 °C | – | > 50% | 1 to 100 nM
6 | O=C1N(Cc2cc(-c3ccc(Cl)cc3)oc2C(F)(F)F)c2ccccc2C12COc1cc3c(cc12)OCO3 (stereo not drawn) [Example 1.15, 1′-{[5-(4-chlorophenyl)-2-(trifluoromethyl)furan-3-yl]methyl}spiro[furo[2,3-f][1,3]benzodioxole-7,3′-indol]-2′(1′H)-one] | 114 to 116 °C | – | < 50% | 1000 to 10000 nM
7 | COc1ccc(CN2C(=O)C3(COc4cc(O)c(C#N)cc43)c3ccccc32)cc1 (stereo not drawn) [Example 2.39, 6-hydroxy-1′-(4-methoxybenzyl)-2′-oxo-1′,2′-dihydrospiro[1-benzofuran-3,3′-indole]-5-carbonitrile] | 112 to 114 °C | – | > 50% | 1000 to 10000 nM
8 | Cc1noc2cc3c(cc12)C1(CO3)C(=O)N(CCC(C)C)c2ccccc21 (stereo not drawn) [Example 9.55, 3-methyl-1′-(3-methylbutyl)spiro[furo[3,2-f][1,2]benzisoxazole-5,3′-indol]-2′(1′H)-one] | 135 to 138 °C | 1 to 100 nM | > 50% | –
9 | COCCOc1ccc2c(c1)OCC21C(=O)Nc2ccccc21 (stereo not drawn) [Example 3.46, 6-(2-methoxyethoxy)spiro[1-benzofuran-3,3′-indol]-2′(1′H)-one] | 172 to 174 °C | – | < 50% | 1000 to 10000 nM
10 | Cc1ccc(NC(=O)CN2C(=O)C3(COc4cc5c(cc43)CCO5)c3ccccc32)c(C)c1 (stereo not drawn) [Example 12.54, N-(2,4-dimethylphenyl)-2-(2′-oxo-5,6-dihydrospiro[benzo[1,2-b:5,4-b′]difuran-3,3′-indol]-1′(2′H)-yl)acetamide] | 277 to 279 °C | 1000 to 10000 nM | > 50% | –
11 | Nc1nc(CN2C(=O)C3(COc4cc5c(cc43)OCO5)c3ccccc32)cs1 (stereo not drawn) [Example 4.85, 1′-[(2-amino-1,3-thiazol-4-yl)methyl]spiro[furo[2,3-f][1,3]benzodioxole-7,3′-indol]-2′(1′H)-one] | 230 to 235 °C | – | > 50% | 100 to 1000 nM
